According to patent publication US20180282323A1, “Mesoionic imidazole derivatives as insecticides” (BAYER CROPSCIENCE AKTIENGESELLSCHAFT, priority 2015, published 2018):

Assays:
[1] = log P by HPLC on reversed-phase column (EEC directive 79/831 Annex V.A8); type: physicochemical; settings: for log p a): HPLC on reversed-phase column; for log p: HPLC on reversed-phase column (footnote a)
Outline: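 Determined per EEC directive 79/831 Annex V.A8 by HPLC on a reversed-phase C18 column at 43° C.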

Diabrotica balteata = Diabrotica balteata spray test; type: in vivo; settings: application rate 160 μg/well, wheat grains with beetle larvae, after 7 days
Protocol: Diabrotica balteata—Spray Test Solvent: 78 parts by weight of acetone • • 1.5 parts by weight of dimethylformamide Emulsifier: alkylaryl polyglycol ether
(§1) To produce a suitable active ingredient formulation, 1 part by weight of active ingredient is dissolved with the stated parts by weight of solvent and made up with water containing an emulsifier concentration of 1000 ppm until the desired concentration is attained. To produce further test concentrations, the formulation is diluted with emulsifier-containing water.
Pre-swollen wheat grains (Triticum aestivum) are incubated in a multiwell plate filled with agar and a little water for one day (5 seed grains per cavity). The germinated wheat grains are sprayed with an active ingredient formulation of the desired concentration. Subsequently, each cavity is infected with 10-20 beetle larvae of Diabrotica balteata.
After 7 days, the efficacy in % is determined. 100% means that all wheat plants have grown as in the untreated, uninfected control; 0% means that no wheat plant has grown.

Myzus persicae [2] = assay: Myzus persicae oral test; type: in vivo; settings: application rate 20 ppm, oral uptake through parafilm, after 5 days
Outline: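 Compound dissolved in acetone, diluted with water, then mixed into IPL41 insect medium with sugar in microtitre plates under parafilm. Mixed-population green peach aphids fed through the membrane; % mortality scored after 5 days (100% = all killed).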

Myzus persicae [3] = assay: Myzus persicae spray test (Chinese cabbage leaf discs); type: in vivo; settings: application rate 500 g/ha, after 6 days
Protocol: Myzus persicae—Spray Test Solvent: 78 parts by weight of acetone • • 1.5 parts by weight of dimethylformamide Emulsifier: alkylaryl polyglycol ether
as §1
Discs of Chinese cabbage leaves (Brassica pekinensis) infested by all stages of the green peach aphid (Myzus persicae) are sprayed with an active ingredient formulation of the desired concentration.
After 6 days, the efficacy in % is determined. 100% means that all the aphids have been killed; 0% means that no aphids have been killed.

Row | Compound | log p a) [1] | efficacy (Diabrotica balteata) [%] | log p [1] | efficacy (Myzus persicae [2]) [%] | efficacy (Myzus persicae [3]) [%]
1 | CCCNC(=O)c1c([O-])n(C(C)c2ccc(Cl)nc2)c2c(C)ccc[n+]12 (racemic) [Example I-1-258] | 2.23 | 80 | – | – | –
2 | O=C(COCc1ccccc1)c1c([O-])n(Cc2cnc(Cl)s2)c2cccc[n+]12 [Example I-1-041] | – | 80 | 2.35 | 100 | –
3 | O=C(Cn1cccn1)c1c([O-])n(Cc2ccc(Cl)nc2)c2ccc(F)c[n+]12 [Example I-1-106] | – | – | 1.53 | 90 | 90
4 | COC(=O)c1c([O-])n(Cc2cncnc2)c2cccc[n+]12 [Example I-1-107] | – | – | 0.42 | 100 | 90
5 | CCOCC(=O)c1c([O-])n(Cc2cnc(Cl)s2)c2ccc(F)c[n+]12 [Example I-1-112] | – | – | 1.58 | 100 | 90
6 | COC(=O)c1c([O-])n(Cc2cnc(Cl)s2)c2cccc(C)[n+]12 [Example I-1-122] | – | – | 1.32 | 100 | 90
7 | CNC(=O)c1c([O-])n(Cc2cnc(Cl)s2)c2cccc[n+]12 [Example I-1-128] | – | 100 | 1.31 | – | –
8 | CCCNC(=O)c1c([O-])n(Cc2cnc(Cl)s2)c2cccc[n+]12 [Example I-1-129] | – | 100 | 1.98 | 100 | –
9 | O=C(NC1CCC1)c1c([O-])n(Cc2cnc(Cl)s2)c2cccc[n+]12 [Example I-1-135] | – | 80 | 2.11 | 90 | –
10 | O=C(NCc1ccccc1)c1c([O-])n(Cc2cnc(Cl)s2)c2cccc[n+]12 [Example I-1-148] | – | 100 | 2.41 | 100 | –
11 | COCC(=O)c1c([O-])n(C(C)c2ccc(Cl)nc2)c2cccc[n+]12 (centres unmarked) [Example I-1-178] | – | – | 1.35 | 100 | 90
12 | Cc1ccc[n+]2c(C(=O)NC3CC3)c([O-])n(Cc3cnc(Cl)s3)c12 [Example I-1-203] | 1.93 | 100 | – | 100 | –
13 | Cc1ccc[n+]2c(C(=O)Nc3ncccc3F)c([O-])n(Cc3cnc(Cl)s3)c12 [Example I-1-274] | 1.78 | – | – | 100 | 90
14 | COC(=O)c1c([O-])n(C(C)c2cnc(Cl)s2)c2c(C)ccc[n+]12 (centres unmarked) [Example I-1-287] | 1.68 | 80 | – | 100 | –
15 | Cc1cccc(Cl)c1NC(=O)c1c([O-])n(Cc2cnc(Cl)s2)c2cccc[n+]12 [Example I-1-304] | 2.8 | – | – | 100 | 100
16 | O=C(Nc1cccnc1Cl)c1c([O-])n(Cc2cnc(Cl)s2)c2cccc[n+]12 [Example I-1-308] | 2.4 | – | – | 100 | 90
17 | O=C(Nc1c(F)cccc1F)c1c([O-])n(Cc2ccc(Cl)nc2)c2cccc[n+]12 [Example I-1-313] | 2.27 | – | – | 100 | 90
18 | O=C(Nc1ncccc1Cl)c1c([O-])n(Cc2ccc(Cl)nc2)c2cccc[n+]12 [Example I-1-315] | 1.46 | – | – | 100 | 100
19 | Cn1nccc1NC(=O)c1c([O-])n(Cc2ccc(Cl)nc2)c2cccc[n+]12 [Example I-1-325] | 1.49 | – | – | 100 | 90
20 | Cc1ccccc1NC(=O)c1c([O-])n(Cc2ccc(Cl)nc2)c2cccc[n+]12 [Example I-1-328] | 2.73 | – | – | 100 | 90

Further lines, with some results ahead:

Row | log p a) [1] | Compound | efficacy (Diabrotica balteata) [%] | log p [1] | efficacy (Myzus persicae [2]) [%] | efficacy (Myzus persicae [3]) [%]
21 | 3.46 | Cc1ccc[n+]2c(C(=O)NC(C)c3ccc(Cl)cc3)c([O-])n(Cc3cnc(Cl)s3)c12 (centres unmarked) [Example I-1-210] | – | – | 100 | 100
22 | 4.06 | Cc1ccc[n+]2c(C(=O)Nc3cccc(C(F)(F)F)c3)c([O-])n(Cc3cnc(Cl)s3)c12 [Example I-1-216] | 100 | – | 100 | –
23 | 3.87 | O=C(Nc1cccc(OC(F)(F)F)c1)c1c([O-])n(Cc2cnc(Cl)s2)c2cccc[n+]12 [Example I-1-230] | 100 | – | – | –
24 | 3.13 | O=C(Nc1ccc(F)cc1F)c1c([O-])n(Cc2cnc(Cl)s2)c2cccc[n+]12 [Example I-1-232] | 100 | – | 90 | –
25 | 3.76 | O=C(Nc1cccc(C(F)(F)F)c1)c1c([O-])n(Cc2cnc(Cl)s2)c2cccc[n+]12 [Example I-1-233] | 80 | – | – | –
26 | 3.21 | Cc1cccc(NC(=O)c2c([O-])n(Cc3cnc(Cl)s3)c3cccc[n+]23)c1 [Example I-1-235] | 100 | – | 90 | –
27 | 3.72 | CC(c1ccc(Cl)nc1)n1c([O-])c(C(=O)Nc2cccc(C(F)(F)F)c2)[n+]2ccccc12 (centres unmarked) [Example I-1-238] | 80 | – | – | –
28 | 1.81 | CCCNC(=O)c1c([O-])n(Cc2cnc(Cl)cn2)c2cccc[n+]12 [Example I-1-279] | – | – | 100 | 90
29 | 2.2 | Cc1ccc[n+]2c(C(=O)NC3CC3)c([O-])n(C(C)c3cnc(Cl)s3)c12 (centres unmarked) [Example I-1-290] | 100 | – | – | –
30 | 3.07 | Cc1ccc[n+]2c(C(=O)Nc3c(F)cccc3F)c([O-])n(Cc3cnc(Cl)s3)c12 [Example I-1-291] | 80 | – | – | –
31 | 2.76 | CCC(CC)OCC(=O)c1c([O-])n(Cc2cnc(Cl)s2)c2c(C)ccc[n+]12 [Example I-1-293] | – | – | 100 | 100
32 | 2.12 | Cc1ccc[n+]2c(C(=O)COC(C)(C)C)c([O-])n(Cc3cnc(Cl)s3)c12 [Example I-1-296] | – | – | 100 | 90
33 | 2.34 | Cc1ccc[n+]2c(C(=O)COCC(F)(F)F)c([O-])n(Cc3cnc(Cl)s3)c12 [Example I-1-297] | – | – | 100 | 90
34 | 1.63 | O=C(Nc1ncccc1Cl)c1c([O-])n(Cc2cnc(Cl)s2)c2cccc[n+]12 [Example I-1-301] | – | – | 100 | 100
35 | 2.14 | O=C(Nc1c(Cl)ccnc1Cl)c1c([O-])n(Cc2cnc(Cl)s2)c2cccc[n+]12 [Example I-1-305] | – | – | 100 | 90
36 | 2.03 | Cc1ccnc(Cl)c1NC(=O)c1c([O-])n(Cc2cnc(Cl)s2)c2cccc[n+]12 [Example I-1-309] | – | – | 100 | 100
37 | 1.75 | N#Cc1cccnc1NC(=O)c1c([O-])n(Cc2cnc(Cl)s2)c2cccc[n+]12 [Example I-1-310] | – | – | 100 | 90
38 | 3.22 | O=C(Nc1ccccc1C(F)(F)F)c1c([O-])n(Cc2cnc(Cl)s2)c2cccc[n+]12 [Example I-1-311] | – | – | 100 | 100
39 | 2.43 | N#Cc1cccc(Cl)c1NC(=O)c1c([O-])n(Cc2cnc(Cl)s2)c2cccc[n+]12 [Example I-1-319] | – | – | 100 | 90
